Experimental data: PubChem BioAssay (NCI)
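Protocol summary: plate cells (96-well), add compound at 5 concentrations, incubate 48 h, interpolate endpoints linearly. At the TGI there is no net growth.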

Columns and labels:
Assay in all cases: growth of human tumour cells (NCI), 48 h
[1] = tested on: OVCAR-3 ovarian
[2] = tested on: NCI-H460 lung
[3] = tested on: SN12C renal
[4] = tested on: HOP-18 NSCLC
[5] = tested on: MDA-MB-231 breast
[6] = tested on: RPMI-8226 leukemia
[7] = tested on: NCI/ADR-RES ovarian
[8] = tested on: SF-268 CNS
[9] = tested on: HOP-62 NSCLC
[10] = tested on: UACC-257 melanoma
[11] = tested on: PC-3 prostate
[12] = tested on: UACC-62 melanoma
[13] = tested on: SNB-19 CNS
[14] = tested on: SNB-75 CNS
[15] = tested on: RXF 393 renal
[16] = tested on: M14 melanoma
[17] = tested on: KM12 colon
[18] = tested on: SF-539 CNS
[19] = tested on: ACHN renal
[20] = tested on: HCT-116 colon
[21] = tested on: RXF-631 renal
[22] = tested on: OVCAR-5 ovarian
[23] = tested on: MCF7 breast
[24] = tested on: EKVX NSCLC
[25] = tested on: SK-MEL-2 melanoma
[26] = tested on: SK-MEL-5 melanoma
[27] = tested on: COLO 205 colon
[28] = tested on: A549 NSCLC
[29] = tested on: BT-549 breast
[30] = tested on: 786-0 renal
[31] = tested on: UO-31 renal
[32] = tested on: HT29 colon
[33] = tested on: U251 CNS
[34] = tested on: HCC-2998 colon
[35] = tested on: K-562 leukemia
[36] = tested on: NCI-H226 lung
[37] = tested on: NCI-H522 lung
[38] = tested on: IGROV1 ovarian
[39] = tested on: MALME-3M melanoma
[40] = tested on: HCT-15 colon
[41] = tested on: CCRF-CEM leukemia
[42] = tested on: KM20L2 colon
[43] = tested on: DLD-1 colon
[44] = tested on: SR leukemia
[45] = tested on: T-47D breast
[46] = tested on: OVCAR-4 ovarian
[47] = tested on: HS 578T breast
[48] = tested on: SK-OV-3 ovarian
[49] = tested on: MDA-MB-435
[50] = tested on: HOP-92 NSCLC
[51] = tested on: HL-60(TB) leukemia
[52] = tested on: SW-620 colon
[53] = tested on: SF-295 CNS
[54] = tested on: TK-10 renal
[55] = tested on: NCI-H23 lung
[56] = tested on: MDA-N
[57] = tested on: DU-145 prostate
[58] = tested on: OVCAR-8 ovarian
[59] = tested on: CAKI-1 renal
[60] = tested on: SK-MEL-28 melanoma
[61] = tested on: DMS 114 small cell lung
[62] = tested on: A498 renal
[63] = tested on: M19-MEL melanoma
[64] = tested on: MOLT-4 leukemia
[65] = tested on: SNB-78 CNS
[66] = tested on: DMS 273 small cell lung
[67] = tested on: LXFL 529 NSCLC
[68] = tested on: LOX IMVI melanoma

COc1ccc2c(NCCCCCCNc3c4ccccc4nc4cc(OC)ccc34)c3ccccc3nc2c1
TGI [1]: 1.76 µM | TGI [2]: 1.1 µM | TGI [3]: 1.49 µM | TGI [4]: 10.9 µM | TGI [5]: 385 nM | TGI [6]: 0.717 µM | TGI [7]: 18.8 µM | TGI [8]: 12.5 µM | TGI [9]: 0.946 µM | TGI [10]: 4.12 µM | TGI [11]: 543 nM | TGI [12]: 1.59 µM | TGI [13]: 3.75 µM | TGI [14]: 1.74 µM | TGI [15]: 483 nM | TGI [16]: 1230 nM | TGI [17]: 2.03 µM | TGI [18]: 1.03 µM | TGI [19]: 1010 nM | TGI [20]: 0.333 µM | TGI [21]: 3.97 µM | TGI [22]: 1.89 µM | TGI [23]: 3.35 µM | TGI [24]: 2.53 µM | TGI [25]: 1670 nM | TGI [26]: 5.76 µM | TGI [27]: 0.189 µM | TGI [28]: 11.9 µM | TGI [29]: 3.18 µM | TGI [30]: 1.3 µM | TGI [31]: 37.5 µM | TGI [32]: 0.486 µM | TGI [33]: 1.47 µM | TGI [34]: 0.451 µM | TGI [35]: 0.304 µM | TGI [36]: 3.49 µM | TGI [37]: 0.34 µM | TGI [38]: 0.339 µM | TGI [39]: 2.55 µM | TGI [40]: 9.36 µM | TGI [41]: 0.549 µM | TGI [42]: 1.17 µM | TGI [43]: 2620 nM | TGI [44]: 1540 nM | TGI [45]: 6.16 µM | TGI [46]: 461 nM | TGI [47]: 937 nM | TGI [48]: 2.04 µM | TGI [49]: 1260 nM | TGI [50]: 2.07 µM | TGI [51]: 379 nM | TGI [52]: 1.08 µM | TGI [53]: 2.04 µM | TGI [54]: 4.56 µM | TGI [55]: 0.819 µM | TGI [56]: 1200 nM | TGI [57]: 1470 nM | TGI [58]: 11 µM | TGI [59]: 3.39 µM

CC(C)(C)c1ccc(OC2CCO2)cc1 (stereo not given)
TGI [1]: > 100 µM | TGI [60]: > 100 µM | TGI [2]: 53.3 µM | TGI [61]: > 100 µM | TGI [62]: > 100 µM | TGI [3]: 38.1 µM | TGI [4]: > 100 µM | TGI [6]: 47 µM | TGI [8]: 81.5 µM | TGI [9]: > 100 µM | TGI [10]: 87.3 µM | TGI [12]: > 100 µM | TGI [63]: 56.1 µM | TGI [64]: 72.3 µM | TGI [13]: > 100 µM | TGI [14]: > 100 µM | TGI [16]: > 100000 nM | TGI [17]: 70.2 µM | TGI [18]: 98.6 µM | TGI [19]: > 100000 nM | TGI [20]: 41.8 µM | TGI [22]: 98.7 µM | TGI [65]: > 100 µM | TGI [24]: 90.1 µM | TGI [26]: > 100 µM | TGI [27]: 70.5 µM | TGI [28]: > 100 µM | TGI [30]: 63.3 µM | TGI [66]: > 100 µM | TGI [31]: > 100 µM | TGI [32]: 50.9 µM | TGI [33]: 35.3 µM | TGI [34]: 94.1 µM | TGI [35]: 39.1 µM | TGI [36]: 92.8 µM | TGI [37]: 52.5 µM | TGI [38]: > 100 µM | TGI [39]: > 100 µM | TGI [40]: 36.9 µM | TGI [41]: 65 µM | TGI [67]: > 100 µM | TGI [42]: 52.8 µM | TGI [46]: > 100000 nM | TGI [48]: > 100 µM | TGI [50]: 82 µM | TGI [52]: 30.9 µM | TGI [53]: > 100 µM | TGI [54]: > 100 µM | TGI [55]: > 100 µM | TGI [58]: > 100 µM | TGI [59]: > 100 µM

Cc1nc(-c2cccnc2)sc1C(=O)/C=C/c1cccc([N+](=O)[O-])c1
TGI [1]: > 100 µM | TGI [60]: > 100 µM | TGI [2]: > 100 µM | TGI [61]: > 100 µM | TGI [62]: > 100 µM | TGI [3]: > 100 µM | TGI [4]: > 100 µM | TGI [6]: > 100 µM | TGI [8]: > 100 µM | TGI [9]: > 100 µM | TGI [10]: > 100 µM | TGI [12]: > 100 µM | TGI [63]: > 100 µM | TGI [64]: > 100 µM | TGI [14]: > 100 µM | TGI [15]: > 100000 nM | TGI [17]: > 100 µM | TGI [18]: > 100 µM | TGI [21]: > 100 µM | TGI [22]: > 100 µM | TGI [24]: > 100 µM | TGI [25]: > 100000 nM | TGI [26]: > 100 µM | TGI [27]: > 100 µM | TGI [28]: > 100 µM | TGI [30]: > 100 µM | TGI [66]: > 100 µM | TGI [31]: > 100 µM | TGI [32]: > 100 µM | TGI [33]: > 100 µM | TGI [34]: > 100 µM | TGI [35]: > 100 µM | TGI [36]: > 100 µM | TGI [37]: > 100 µM | TGI [38]: > 100 µM | TGI [39]: > 100 µM | TGI [40]: > 100 µM | TGI [41]: > 100 µM | TGI [42]: > 100 µM | TGI [43]: > 100000 nM | TGI [48]: > 100 µM | TGI [50]: > 100 µM | TGI [51]: > 100000 nM | TGI [52]: > 100 µM | TGI [53]: > 100 µM | TGI [54]: > 100 µM | TGI [55]: > 100 µM | TGI [58]: > 100 µM | TGI [68]: > 100 µM | TGI [59]: > 100 µM
